Source: paper PMC5608758, “A brain-targeting lipidated peptide for neutralizing RNA-mediated toxicity in Polyglutamine Diseases” (Scientific Reports, 2017)
Values joined by “and” are separate entries in the source; they are usually repeats but may differ in a detail not shown here. Equal entries are not always repeated. “Also recorded” adds a separate entry of the source. Where two headings read alike, the source gives them in different places. Residues, ends and D or L forms follow the SMILES beside them. *: point of attachment. Palmitoyl = CCCCCCCCCCCCCCCC(=O)*

Key:
[1] = system: primary rat cortical neurons; experiment: LDH cytotoxicity in primary neurons; assay type: cell-based; settings: 0.01 nM to 1 µM, 72 hr; P3V8 transfected with DeliverX; 3 independent experiments
Method: HEK293 cells were cultured at 37 °C with 5% CO2 in DMEM supplemented with 10% FBS and 1% penicillin-streptomycin. Primary rat cortical neurons were isolated and cultured as previously described. Transient transfection of HEK293 cells was performed using Lipofectamine 2000 (Life Technologies). P3V8 were delivered to HEK293 cells using the DeliverX (DX) Peptide Transfection Kit (Affymetrix) 4 hr after DNA transfection. At least two batches of independently synthesized peptides were used in the experiments. […]
cortical neurons. A density of […] of primary rat cortical neurons were seeded on culture […]
and 1000 nM of P3V8 peptide (transfected with DeliverX). The lactate dehydrogenase (LDH) cytotoxicity activity was measured 72 hr post-treatment. Fold change of LDH activity was normalized to untreated cells. Data are expressed as mean ± S.E.M. for 3 independent experiments. NS indicates no significance.
(1 picture or pasted object on this page, not shown here)
The LDH cytotoxicity activity was measured 72 hr post-treatment. Fold change of LDH activity was normalized to untreated cells. Data are expressed as mean ± S.E.M. for 3 independent experiments. NS indicates no significance.

[2] = Plasma pharmacokinetic study in SD rat
Method: SD rats (180–200 g) were anesthetized with an intraperitoneal injection of ketamine (60 mg/kg) and xylazine (6 mg/kg) and received a minor surgery of cannulation with a polythene tube (0.4 mm i.d., 0.8 mm o.d., Harvard Apparatus, Holliston, MA, USA) in the left jugular vein. The rats received an overnight recovery with free access to food and water. […] For the pharmacokinetic study, after the drug administration, blood samples were collected from the catheter at appropriate time intervals (2, 5, 10, 15, 20, 30, 45, 60, and 90 min). After each collection, 0.2 mL of saline containing 25 IU heparin was injected to compensate for the blood loss. Plasma was collected after centrifugation at 8000 rcf for 3.5 min and stored at −80°C until analysis. For brain uptake study, at 20 min, the rat was anesthetized and perfused by 500 mL saline, and the whole brain was collected. The brain was wiped by tissue paper to remove excess water, meninges and blood vessels followed by storage at −80 °C until analysis.
Aliquot of plasma sample (80 μL) was mixed with 160 μL acetonitrile. The mixture was vortexed for 1 min and followed by centrifugation at 13000 rcf for 10 min. The supernatant was collect and subjected to LC/MS/MS analysis.
Agilent 6430 Triple Quadrupole LC/MS/MS system (Agilent Technologies, CA, USA) was employed for the analysis. For analysis of P3V8, chromatographic separation was achieved on a SunFire C8 Column (250 mm × 4.6 mm, 5 µm). The mobile phase of water containing 0.2% formic acid (A) and acetonitrile (B) was used with a gradient elution (0–5 min, 20–70% B). The flow rate was 0.8 mL/min. Multiple reactions monitoring (MRM) with fragmentation transition of 500 to 129 in positive ion mode was employed for quantization of P3V8. […] Mobile phase of water (A) and acetonitrile (B) was used. The gradient elution for plasma samples was 0–4 min, 30–95% B, and for brain samples was 0–9 min, 10–95% B. The flow rate was 0.8 mL/min.
Plasma concentration verse time profiles were analyzed by WinNonlin (Pharsight Corporation, Mountain View, CA, USA, Version 2.1) to obtain the pharmacokinetics parameters. Other data were analyzed by one-way ANOVA followed by post hoc Tukey test or unpaired t-test. “*”, “**”, “***” and “****” represent P < 0.05, P < 0.01, P < 0.001 and P < 0.0001 respectively, which are considered statistically significant.

[3] = system: EGFP CAG78 RNA-expressing HEK293 cells; assay type: cell-based; settings: for suppression of expanded CAG RNA-induced cell death: LDH assay
Method: HEK293 cells were cultured at 37 °C with 5% CO2 in DMEM supplemented with 10% FBS and 1% penicillin-streptomycin. Primary rat cortical neurons were isolated and cultured as previously described. Transient transfection of HEK293 cells was performed using Lipofectamine 2000 (Life Technologies). P3V8 were delivered to HEK293 cells using the DeliverX (DX) Peptide Transfection Kit (Affymetrix) 4 hr after DNA transfection. At least two batches of independently synthesized peptides were used in the experiments.
HEK 293 cells were seeded on a 24-well plate at a density of 0.5 × 10^5, and pEGFP CAG78 DNA construct was used to transfect the cells. […] […] Seventy-two hours after treatment, LDH enzyme activity in the cell culture medium was measured as described before. Experimental groups were normalized to the untransfected control. After normalization, data were analyzed using the dose response-inhibition curve (nonlinear regression-variable slope) to determine the IC50 value (Prism6 software, GraphPad Software, Inc.). Each experiment was repeated at least 3 times.

HEK293 cells = experiment: Cellular uptake studies in HEK293 cells; assay type: in vitro ADME; settings: 3 hr, 37 °C, cell lysate, LC/MS, normalized to total protein; for cellular uptake level: 100 nM peptide
Method: HEK293 cells were seeded on a 6-well plate at a density of 6 × 10^5 and cultured overnight at 37 °C with 5% CO2 in DMEM supplemented with 10% FBS and 1% penicillin-streptomycin. Cells were then treated with 100, 500 or 1000 nM of respective peptide at 37 °C for 3 hr. After treatment, the cells were washed with ice-cold PBS and then lysed by 2% SDS solution. Aliquot (100 µl) of the cell lysate was added with 200 µl acetonitrile and centrifuged at 13000 rcf for 10 min to precipitate the proteins. The collected supernatant was subjected to LC/MS analysis. The protein concentration of the cell lysate was measured using a bicinchoninic acid protein assay kit following Sigma’s protocol.

[4] = SD rats, intranasal, 3 μmol/kg, pre-treated with 0.5% chitosan, mean ± S.E.M. of 6
[5] = SD rats, intranasal, 3 μmol/kg, pre-treated with 0.5% chitosan, plasma, mean ± S.E.M. of 6
[6] = Sprague-Dawley, rat, plasma, iv, 3 μmol/kg
[7] = Sprague-Dawley, rat, in vivo, iv, 3 μmol/kg

Row | Compound | cytotoxicity (LDH release) [1] | AUC0-last [2, 4] | Tmax [2, 4] | Cmax [2, 5] | Tmax ([2]; Sprague-Dawley, rat, plasma, iv, 3 umol/kg) | AUC(0-t) [2, 6] | Cmax [2, 6] | suppression of expanded CAG RNA-induced cell death ([3]; peptide alone, without DeliverX) | suppression of expanded CAG RNA-induced cell death ([3]; peptide transfected with DeliverX 4 hr after plasmid transfection) | cellular uptake level (HEK293 cells) | T1/2 [2, 4] | level at time molar at 1.5 h ([2]; Sprague-Dawley, rat, in vivo, iv, 3 umol/kg) | AUC(0-t) [2, 7] | Cmax [2, 7] | Tmax [2, 7] | half-life [2, 7] | IC50 ([3]; read-out: IC50, inhibition of cell death (LDH enzyme activity reduced by 50%), peptide added without DeliverX immediately after plasmid transfection, LDH 72 hr after treatment, mean ± S.E.M., at least 3 experiments) | cellular uptake level compared to P3V8 (HEK293 cells; 500 nM and 1 µM peptide)
1 | Ac-DGKSKGIAYIEFK-NH2 [P3V8] | no cytotoxicity; also recorded: no significant cell death | 85 ± 32 nmol·min/L | 15 min and 15 ± 4 min | 12 ± 2 nM | 2 min | 0.0202 µM·h | 452 ± 22 nM | did not exert any cellular effect | could effectively alleviate the cytotoxicity | no uptake |  |  |  |  |  |  |  | 
2 | CCCCCCCCCCCCCCCC(=O)N[C@@H](CC(=O)O)C(=O)NCC(=O)N[C@@H](CCCCN)C(=O)N[C@@H](CO)C(=O)N[C@@H](CCCCN)C(=O)NCC(=O)N[C@H](C(=O)N[C@@H](C)C(=O)N[C@@H](Cc1ccc(O)cc1)C(=O)N[C@H](C(=O)N[C@@H](CCC(=O)O)C(=O)N[C@@H](Cc1ccccc1)C(=O)N[C@@H](CCCCN)C(N)=O)[C@@H](C)CC)[C@@H](C)CC [L1P3V8] (Palmitoyl-DGKSKGIAYIEFK-NH2) | no cytotoxicity; also recorded: no cytotoxic effects | 2277 ± 558^*** min * nmol/L | 18 ± 1 min | 74 ± 13^*** nmol/L |  |  |  |  |  | low cellular concentration | 37 ± 5 min | 190 nM | 2.99 µM·h | 10400 ± 1220 nM | 2 min | 17 ± 4 min | ~100 nM | higher cellular concentration
